Test results published in PMC12030165, “Bioactivity of Synthesized Trifluoromethyl Thioxanthone Analogues” (Pharmaceuticals, 2025).

How the values were obtained:
[1] = DPPH antioxidant activity assay
Experimental: To evaluate four synthesized compounds and Trolox (as a positive control), a 1 mg/mL concentration in methanol was first made from phenyl alcohol. The prepared solution was produced in concentrations of 1, 2, 3, 5, 7, 10, 20, 30, 50, and 80 µg/mL. The DPPH reagent was then diluted in 0.002% w/v methanol and combined in a […] ratio with the previously produced working concentrations. A blank solution of 100% methanol was used. All solutions were incubated at room temperature for 30 min in a dark environment. Their absorbance values were then determined using a UV-visible spectrophotometer set at a wavelength of 517 nm. The antioxidant capacity of each chemical compound fraction and Trolox were calculated using the following formula:% inhibition = ((Abs blank − Abs Sample)/Abs Blank) × 100 where:
Abs blank: Absorbance value of the control reaction containing all reagents except the synthesized compound.
Abs sample: The absorbance value of the synthesized compound [48].

[2] = set-up: method as in PMID 35200663; settings: cell line not given; cited from earlier work
HeLa cells = tested on: HeLa cells; set-up: method as in PMID 31200286; settings: same cell line; read-out: IC50 against HeLa cells, positive control; cited from earlier work

SMILES: Cc1c(C)c2c(c(C)c1O)CCC(C)(C(=O)O)O2 (stereo not drawn) [Trolox, reference compound]
- % inhibition of DPPH radical (radical scavenging) ([1]; 1 µg/mL): 30.5 ± 2.2%
- % inhibition of DPPH radical (radical scavenging) ([1]; 2 µg/mL): 23.6 ± 1.3%
- % inhibition of DPPH radical (radical scavenging) ([1]; 3 µg/mL): 61.4 ± 5.3%
- % inhibition of DPPH radical (radical scavenging) ([1]; 5 µg/mL): 90.7± 11.3%
- % inhibition of DPPH radical (radical scavenging) ([1]; 7 µg/mL): 95.3 ± 10.7%
- % inhibition of DPPH radical (radical scavenging) ([1]; 10 µg/mL): 95.9± 9.5%
- % inhibition of DPPH radical (radical scavenging) ([1]; 20 µg/mL): 96.7 ± 12.5%
- % inhibition of DPPH radical (radical scavenging) ([1]; 30 µg/mL): 97.2 ± 8.5%
- % inhibition of DPPH radical (radical scavenging) ([1]; 50 µg/mL): 98.1± 9.2%
- % inhibition of DPPH radical (radical scavenging) ([1]; 80 µg/mL): 98.9± 11.8%

SMILES: C=C1C(=O)O[C@H]2/C=C(\C)CC/C=C(\C)CCC(=O)[C@]3(C)O[C@@H]3C[C@@H]12 [crassocolide N]
- cytotoxicity IC50 [2]: 4.7 µg/mL

SMILES: COc1cccc2c1C(=O)c1c(O)c3c(c(O)c1C2=O)C[C@@](O)(C(=O)CO)C[C@@H]3O[C@H]1C[C@H](N)[C@H](O)[C@H](C)O1 [doxorubicin]
- IC50 (HeLa cells): 1.1 ± 0.015 µM
